Source: patent publication US10058587B2, “Peptide composition for cancer treatment by inhibiting TRPV6 calcium channel activity” (priority 2008, dated 2018)
Where no end group is shown, it is not given here.

Experiments:
K-562 = test: Apoptosis and cell viability in CML cell line (Example 12); assay type: cell-based, human; conditions: 0, 10 and 100 uM, 5 to 7 days
Protocol: (§1) For this work, the concentrations of SorC13 and SorC27 used are 0 uM, 10 uM and 100 uM. The experiments extend over a 5 to 7 day period. All measurements are done in quadruplicate with both a blank (no cells) and control (vehicle, no peptide) used to correct the test measurements. The time-response data, and the dose-response data are plotted as means±standard error of the mean.
The cell line K-562 (from ATCC CCL-243) is grown under the recommended conditions and in culture media recommended by ATCC. The cell lines were cultured under sterile conditions at 37° C., in a humidified 5% CO2 atmosphere.
Induction of apoptosis and attendant decrease is observed in cell viability in the cancer cell lines. From the large increases in the activities of the caspase 3/7 activity, it is clear that there is a time dependent effect and a dose dependent effect on the induction of apoptosis.

[1] = test system: Human Non-Small Cell Lung Carcinoma (NSCLC) lines H1437 and H2087; test: Apoptosis (APO-ONE) and cell viability (CellTiter Blue) in NSCLC lines (Example 9); assay type: cell-based; conditions: 10 and 100 uM
Protocol: The effects of the C-peptides on metastasizing human lung carcinoma cells are studied. […] In vitro studies employing SorC13 and SorC27 are carried out in metastatic lymph node-derived cell lines to determine their effect on Human Non-Small Cell Lung Carcinoma (NSCLC) lines H1437 (from ATCC CRL-5872) and H2087 (from ATCC CRL-5922). Both of these cell lines are adenocarcinomas derived from the metastaic site (lymph node) and from a stage 1 NSCLC lung cancer. Major lymphatics of interest which are usefully treated with peptides of the invention include superfacial cervical nodes, axillary nodes, brachial nodes, mesenteric nodes and inguinal nodes.
For the study, the cell lines are grown under the recommended conditions and in culture media recommended by ATCC. The cell lines are cultured under sterile conditions at 37° C., in a humidified 5% CO2 atmosphere.
Both the APO-ONE assay and the CellTiter Blue (Promega) are used on the cell lines to evaluate apoptosis and cell viability, respectively.

[2] = test system: NIH-OVCAR-3 and SKOV3 cells; test: Ovarian adenocarcinoma xenograft model (Example 14, general results); assay type: in vivo, NOD/SCID mice; conditions: 400 mg/kg body weight
Protocol: Optionally, to implant NIH-OVCAR-3 or SKOV3 tumor cells into NOD/SCID mice, cell cultures are centrifuged to pellet the cells, the supernatant is aspirated, the cell pellet is resuspended in 10 ml of growth media and the cell number is determined using a hemocytometer. The cells are then washed in appropriate media and re-suspended at a concentration of 5×10^7 cells/ml in media. Using a 27 gauge needle and 1 cc syringe, 0.1 ml of the cell suspension is injected subcutaneously into the flanks of the mice. Tumors are then permitted to develop in vivo until the majority reach 100-200 mm^3 in tumor volume, which typically requires 1-2 weeks following implantation. These tumors are used to produce tissue subcutaneous implants into NOD/SCID mice which after 2 days are treated with either the test peptides or CAT.
Tumor volumes (V) are calculated by caliper measurement using standard measurements of the width (W), length (L) and thickness (T) of tumors. Animals are randomized into treatment groups so that the median tumor volumes of each group were similar at the start of dosing. % T/C values, as a measure of efficacy, are determined where C refers to volume of control or untreated tumor, and T refers to volume of treated tumor.
Animals are intraperitoneally (i.p.) injected with this formulation at 10 ml per kg body weight on a schedule.

[3] = test system: MDA-MB-468 (MB 468) breast cancer cell line; test: Induction of apoptosis (APO-ONE caspase 3/7) and cell viability (CellTiter Blue); assay type: cell-based, human
Protocol: MCF-7, MDA-MB-231, MDA-MB-415, MDA-MB-468 were grown in DMEM modified with 10% (v/v) fetal bovine serum, 2 mM L-glutamine and 50 ug/mL each of penicillin and streptomycin.
The levels of apoptotic induction and cell viability were determined by multiplexing the measurements for single samples. CellTiter Blue and APO-ONE assay systems from Promega allows the determination of cell viability correlated to cell number, and induction of apoptosis. This protocol uses a fluorgenic peptide that contains a peptide recognition-sequence for caspase 3 and caspase 7, […] proteolytic enzymes of the apoptosis cascade. The CellTiter Blue reagent was added to wells in a 96-well plate containing cells under test, immediately after addition of peptide solution or vehicle. About 5000 cells were plated into the wells the day before. At the chosen time (Day 1, Day 2 etc.) the fluorescence was measured at 590 nm (emission) after excitation at 560 nm. The caspase 3/7 activity was measured (485 nm Ex/527 nm Em) in the same wells after adding 120 uL of the Apo-ONE reagent, freeze fracturing at −80° C. for 1 hr, and incubating for 1 hr at room temperature.
For this work, the concentrations of SorC13 and SorC27 used were 0 uM, 1 uM, 10 uM and 100 uM. The experiments extended over a 5 to 7 day period. All measurements were done in quadruplicate with both a blank (no cells) and control (vehicle, no peptide) used to correct the test measurements. The time-response data, and the dose-response data were plotted as means±standard error of the mean. Any statistical comparisons were done with the Student's t-test or by ANOVA analysis over the dose course. The level of statistical significance was considered to be the 95% confidence interval (i.e., p≤0.05).

PC3 and LnCaP clone FGC = test: Apoptosis and cell viability in prostate cancer cell lines (Example 10); assay type: cell-based, human; conditions: 0, 10 and 100 uM, 5 to 7 days
Protocol: as §1
The cell lines PC3 (from ATCC CRL-1435) and LnCaP clone FGC (from ATCC CRL-1740), obtained from the American Type Culture Collection (ATCC) and grown under the recommended conditions and in culture media recommended by ATCC. The cell lines are cultured under sterile conditions at 37° C., in a humidified 5% CO2 atmosphere.
Induction of apoptosis and attendant decrease is observed in cell viability in the cancer cell lines. From the large increases in the activities of the caspase3/7 activity, it is clear that there is a time dependent effect and a dose dependent effect on the induction of apoptosis.

Sequence	induction of apoptosis and cell viability (K-562)	induction of apoptosis [1]	growth rate of tumor cells [2]	Apoptosis Index (1 = no effect) ([3]; SorC13 1 uM)	Apoptosis Index (1 = no effect) ([3]; SorC13 10 uM)	Apoptosis Index (1 = no effect) ([3]; SorC13 100 uM)	induction of apoptosis and cell viability (PC3 and LnCaP clone FGC)	Apoptosis Index (1 = no effect) ([3]; Day 3, SorC27 10 μM)	Apoptosis Index (1 = no effect) ([3]; Day 3, SorC27 100 μM)
KEFLHPSKVDLPR [SorC13, KEFLHPSKVDLPR]	induces apoptosis and decreases cell viability	induce apoptosis	substantially decreases the growth rate	2.7	3.3	2.7	induces apoptosis and decreases cell viability	–	–
EGKLSSNDTEGGLCKEFLHPSKVDLPR [SorC27]	induces apoptosis and decreases cell viability	induce apoptosis	substantially decreases the growth rate	–	–	–	induces apoptosis and decreases cell viability	1.1	1.2
